The nature of the series: Hydrophilic-lipophilic balance (HLB). Type of series: physicochemical. The following applies: single surfactant / MEL mixture. The text has this:
Dispersants currently used in oil spills are usually a blend of non-ionic and anionic surfactants dissolved in a solvent base. Surfactants are amphiphilic molecules containing both hydrophobic and hydrophilic regions, so they are soluble in both oil and water phases. An empirical parameter used for the classification of surfactants is the hydrophilic-lipophilic balance (HLB) number. The HLB is defined as: […]
Where Mh is the molecular weight of the hydrophilic head group of the surfactant molecule, and M is the molecular mass of the complete molecule. HLB is given on a scale of 1-20. […] A surfactant with an HLB between 8 and 12 may promote either type of emulsion, but generally promotes O/W emulsions.
In an embodiment, the results can be explained by providing the molecular level discussion of the synergy between MEL and polyethylene glycol sorbitan monooleate molecules. As explained earlier, MELs are hydrophobic and polyethylene glycol sorbitan monooleate is quite hydrophilic and water soluble. The HLB of the combination of the two surfactants can be calculated by the following expression: […]
Where, WM and WPGSE are, respectively, the weight fraction of MELs and polyethylene glycol sorbitan ester, in particular polyethylene glycol sorbitan monooleate, in the blend.

With polyethylene glycol sorbitan monooleate, the HLB is reported as 15.

The values above are taken from patent US20250011651A1, “OIL DISPERSANT FORMULATION, METHODS AND USES THEREOF” (INSTITUTO SUPERIOR TÉCNICO, priority 2021, published 2025).
